From patent US8163661B2, “Luminescence measurement system” (Olympus Corporation, priority 2007, dated 2012)

Columns and labels:
cytoplasmic ATP = settings: 30 minutes after treatment with FCCP; cited from earlier work
[1] = tested on: HeLa cell (pGL3 transfected); settings: pGL3 transfected to HeLa cell, measured with time
Procedure: Specifically, in the experiments conducted by the present inventor, pGL3 was transfected to HeLa cell and, by making use of FCCP acting as an uncoupler, the production of ATP in mitochondria was suspended and then the luminescence intensity on this occasion was measured with time by making use of LUMINOVIEW (LV100) (trade name).

**Q.** For `N#CC(C#N)=NNc1ccc(OC(F)(F)F)cc1` [FCCP, carbonyl cyanide p-(trifluoromethoxy) phenylhydrazone], which “concentration of cytoplasmic ATP relative to steady state” value (cytoplasmic ATP) is on record?
**A.** Its value is “about 50 % of that of steady state”.

**Q.** What about the “luminescence intensity after FCCP” value [1] of the same molecule?
**A.** Its value is “not attenuated”.
